Source: PubChem BioAssay (NCI)
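1) Cells in 96-well plates. 2) Compound, 48 h, 5 concentrations. 3) Linear interpolation between surrounding doses. 4) Unreached endpoint = highest concentration. GI50 = concentration required for 50% inhibition of growth. TGI: total growth inhibition.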

Columns and labels:
Experiment in all cases: NCI tumour cell line growth inhibition, 48 h
[1] = tested on: NCI-H460 lung
[2] = tested on: HCT-116 colon
[3] = tested on: NCI-H23 lung
[4] = tested on: RXF 393 renal
[5] = tested on: HCC-2998 colon
[6] = tested on: PC-3 prostate
[7] = tested on: MDA-MB-435
[8] = tested on: SF-268 CNS
[9] = tested on: LOX IMVI melanoma
[10] = tested on: MOLT-4 leukemia
[11] = tested on: HS 578T breast
[12] = tested on: UACC-257 melanoma
[13] = tested on: ACHN renal
[14] = tested on: UO-31 renal
[15] = tested on: SK-OV-3 ovarian
[16] = tested on: SN12C renal
[17] = tested on: HL-60(TB) leukemia
[18] = tested on: OVCAR-8 ovarian
[19] = tested on: OVCAR-5 ovarian
[20] = tested on: EKVX NSCLC
[21] = tested on: IGROV1 ovarian
[22] = tested on: SW-620 colon
[23] = tested on: MDA-MB-231 breast
[24] = tested on: M14 melanoma
[25] = tested on: HCT-15 colon
[26] = tested on: NCI/ADR-RES ovarian
[27] = tested on: SF-295 CNS
[28] = tested on: OVCAR-4 ovarian
[29] = tested on: SK-MEL-2 melanoma
[30] = tested on: CCRF-CEM leukemia
[31] = tested on: A498 renal
[32] = tested on: HT29 colon
[33] = tested on: HOP-62 NSCLC
[34] = tested on: KM12 colon
[35] = tested on: SF-539 CNS
[36] = tested on: SK-MEL-5 melanoma
[37] = tested on: DU-145 prostate
[38] = tested on: RPMI-8226 leukemia
[39] = tested on: BT-549 breast
[40] = tested on: HOP-92 NSCLC
[41] = tested on: 786-0 renal
[42] = tested on: CAKI-1 renal
[43] = tested on: TK-10 renal
[44] = tested on: NCI-H522 lung
[45] = tested on: A549 NSCLC
[46] = tested on: UACC-62 melanoma
[47] = tested on: U251 CNS
[48] = tested on: SNB-19 CNS
[49] = tested on: SNB-75 CNS
[50] = tested on: SK-MEL-28 melanoma
[51] = tested on: K-562 leukemia
[52] = tested on: COLO 205 colon
[53] = tested on: OVCAR-3 ovarian
[54] = tested on: MALME-3M melanoma
[55] = tested on: NCI-H226 lung

With `CC(C)Cc1ccc(C(C)C(=O)NCc2ccc(Cn3c(=O)sn(CCCCl)c3=O)cc2)cc1` (stereo not given) the GI50 [1] was 1650 nM, the TGI [1] was 3340 nM and the GI50 [2] was 235 nM. The TGI [2] was 783 nM, the GI50 [3] was 1590 nM and the TGI [3] was 3260 nM. For the same compound, the GI50 [4] was 1170 nM, the TGI [4] was 2410 nM and the GI50 [5] was 1850 nM. For the same compound, the TGI [5] was 3370 nM, the GI50 [6] was 677 nM and the TGI [6] was 2270 nM. The GI50 [7] was 1140 nM, the TGI [7] was 2440 nM and the GI50 [8] was 1600 nM. For the same compound, the TGI [8] was 3020 nM, the GI50 [9] was 1180 nM and the TGI [9] was 2520 nM. It also gave a GI50 [10] of 962 nM, a TGI [10] greater than 100000 nM and a GI50 [11] of 1820 nM. It also gave a TGI [11] of 4900 nM, a GI50 [12] of 1560 nM and a TGI [12] of 2980 nM. It also gave a GI50 [13] of 746 nM, a TGI [13] of 2020 nM and a GI50 [14] of 672 nM. The TGI [14] was 2080 nM, the GI50 [15] was 6130 nM and the TGI [15] was 20000 nM. The GI50 [16] was 1340 nM, the TGI [16] was 2650 nM and the GI50 [17] was 3820 nM. It also gave a TGI [17] greater than 100000 nM, a GI50 [18] of 1210 nM and a TGI [18] of 2870 nM. It also gave a GI50 [19] of 1750 nM, a TGI [19] of 3290 nM and a GI50 [20] of 1470 nM. For the same compound, the TGI [20] was 2780 nM, the GI50 [21] was 744 nM and the TGI [21] was 2210 nM. The GI50 [22] was 497 nM, the TGI [22] was 1900 nM and the GI50 [23] was 1370 nM. For the same compound, the TGI [23] was 2720 nM, the GI50 [24] was 621 nM and the TGI [24] was 2200 nM. For the same compound, the GI50 [25] was 511 nM, the TGI [25] was 2050 nM and the GI50 [26] was 2110 nM. The TGI [26] was 8250 nM, the GI50 [27] was 4900 nM and the TGI [27] was 17500 nM. For the same compound, the GI50 [28] was 1530 nM, the TGI [28] was 3020 nM and the GI50 [29] was 1430 nM. It also gave a TGI [29] of 3000 nM, a GI50 [30] of 361 nM and a TGI [30] greater than 100000 nM. For the same compound, the GI50 [31] was 1260 nM, the TGI [31] was 2870 nM and the GI50 [32] was 1600 nM. The TGI [32] was 2940 nM, the GI50 [33] was 1280 nM and the TGI [33] was 2730 nM. It also gave a GI50 [34] of 1760 nM, a TGI [34] of 3450 nM and a GI50 [35] of 1480 nM. For the same compound, the TGI [35] was 2810 nM, the GI50 [36] was 1630 nM and the TGI [36] was 2990 nM. For the same compound, the GI50 [37] was 1460 nM, the TGI [37] was 2820 nM and the GI50 [38] was 375 nM. It also gave a TGI [38] of 6180 nM, a GI50 [39] of 1090 nM and a TGI [39] of 2700 nM. The GI50 [40] was 814 nM, the TGI [40] was 2260 nM and the GI50 [41] was 551 nM. For the same compound, the TGI [41] was 1980 nM, the GI50 [42] was 619 nM and the TGI [42] was 2080 nM. For the same compound, the GI50 [43] was 493 nM, the TGI [43] was 1850 nM and the GI50 [44] was 458 nM. It also gave a TGI [44] of 2010 nM, a GI50 [45] of 1790 nM and a TGI [45] of 3720 nM. For the same compound, the GI50 [46] was 1420 nM, the TGI [46] was 2760 nM and the GI50 [47] was 1630 nM. It also gave a TGI [47] of 3010 nM, a GI50 [48] of 1710 nM and a TGI [48] of 3300 nM. For the same compound, the GI50 [49] was 445 nM, the TGI [49] was 2040 nM and the GI50 [50] was 1650 nM. The TGI [50] was 3020 nM, the GI50 [51] was 412 nM and the TGI [51] was greater than 100000 nM. It also gave a GI50 [52] of 1120 nM, a TGI [52] of 2760 nM and a GI50 [53] of 738 nM. The TGI [53] was 2030 nM, the GI50 [54] was 1560 nM and the TGI [54] was 2970 nM. For the same compound, the GI50 [55] was 1430 nM and the TGI [55] was 3130 nM.
